Values of other authors as cited in US20040106141A1, “Methods and materials for examining pathways associated with glioblastoma progression” (The Regents of the University of California, priority 2002, published 2004).

Test system: SKMG-3 cells
Conditions: unstimulated SKMG-3 cells

SMILES: CNc1cc2c(Nc3cccc(Br)c3)ncnc2cn1 [PD158780]
- constitutive phosphorylation of Erk: reduces
- constitutive phosphorylation of the receptor (EGFR) (GBM cell line with EGFR gene amplification): reduces
